Source: patent US7226922B2 (dated 2007)

For Cc1cnn2c(-c3cccc(-c4ccccc4C#N)c3)cnc2c1, the melting point was 164 to 166 °C.
